Test results: ChEMBL document CHEMBL5380774, “Fragment-to-Lead Medicinal Chemistry Publications in 2021” (J Med Chem, 2023)
Each block holds one compound with its values, some of them ahead of it.

Columns and labels:
Adenosine receptor A1 = biological target: T1, Adenosine receptor A1 (Homo sapiens, UniProt P30542); test: Binding affinity to human A1AR assessed as inhibition constant
T1 sequence (P30542 whole entry): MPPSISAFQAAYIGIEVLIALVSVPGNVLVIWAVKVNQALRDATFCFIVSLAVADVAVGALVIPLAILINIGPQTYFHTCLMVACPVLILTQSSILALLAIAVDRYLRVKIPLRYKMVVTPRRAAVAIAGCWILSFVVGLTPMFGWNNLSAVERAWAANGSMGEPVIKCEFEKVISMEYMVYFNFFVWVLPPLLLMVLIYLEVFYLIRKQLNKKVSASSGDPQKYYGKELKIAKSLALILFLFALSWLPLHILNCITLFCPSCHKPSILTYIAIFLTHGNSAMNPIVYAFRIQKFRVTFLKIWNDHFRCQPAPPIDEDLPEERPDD

[1] = biological target: Proto-oncogene tyrosine-protein kinase receptor Ret (Homo sapiens, UniProt P07949); test: Inhibition of rearranged during transfection kinase (unknown origin)
[2] = biological target: T2, Histone-lysine N-methyltransferase ASH1L (Homo sapiens, UniProt Q9NR48); test: Binding affinity to ASH1L SET domain (2069 to 2288 residues) (unknown origin) assessed as dissociation constant by ITC analysis
[3] = biological target: T3, Muscarinic acetylcholine receptor M1 (Homo sapiens, UniProt P11229); test: Agonist activity at human M1 receptor; assay type: functional
T3 sequence (P11229 whole entry): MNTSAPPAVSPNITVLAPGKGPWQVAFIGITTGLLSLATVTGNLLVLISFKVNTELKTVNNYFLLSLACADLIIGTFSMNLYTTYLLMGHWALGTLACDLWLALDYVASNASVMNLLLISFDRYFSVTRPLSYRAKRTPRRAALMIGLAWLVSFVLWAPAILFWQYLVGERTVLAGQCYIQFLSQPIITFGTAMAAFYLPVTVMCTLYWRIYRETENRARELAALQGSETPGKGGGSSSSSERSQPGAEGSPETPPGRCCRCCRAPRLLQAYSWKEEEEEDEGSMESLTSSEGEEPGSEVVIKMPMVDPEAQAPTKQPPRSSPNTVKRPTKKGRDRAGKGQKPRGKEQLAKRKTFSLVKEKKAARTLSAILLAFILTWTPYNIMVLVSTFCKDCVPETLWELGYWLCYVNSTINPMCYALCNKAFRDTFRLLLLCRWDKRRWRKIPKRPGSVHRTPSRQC

[4] = biological target: YEATS domain-containing protein 4 (Homo sapiens, UniProt O95619); test: Inhibition of human N-terminal GST tagged GAS41 (1 to 148 residues) incubated for 1 hr by fluorescence polarization assay
[5] = biological target: T2, Histone-lysine N-methyltransferase ASH1L; test: Inhibition of N-terminal Mocr-tagged ASH1L (2069 to 2288 residues) (unknown origin) expressed in Escherichia coli BL21 (DE3) by […]

YEATS domain-containing protein 4, sequence (O95619 whole entry, the tested form may be a part): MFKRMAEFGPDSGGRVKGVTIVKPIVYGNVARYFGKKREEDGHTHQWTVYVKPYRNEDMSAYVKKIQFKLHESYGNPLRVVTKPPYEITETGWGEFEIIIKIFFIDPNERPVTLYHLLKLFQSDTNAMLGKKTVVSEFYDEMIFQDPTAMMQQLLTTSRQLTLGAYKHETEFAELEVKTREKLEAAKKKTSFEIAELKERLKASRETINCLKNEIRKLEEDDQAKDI
Proto-oncogene tyrosine-protein kinase receptor Ret, sequence (P07949 whole entry, the tested form may be a part): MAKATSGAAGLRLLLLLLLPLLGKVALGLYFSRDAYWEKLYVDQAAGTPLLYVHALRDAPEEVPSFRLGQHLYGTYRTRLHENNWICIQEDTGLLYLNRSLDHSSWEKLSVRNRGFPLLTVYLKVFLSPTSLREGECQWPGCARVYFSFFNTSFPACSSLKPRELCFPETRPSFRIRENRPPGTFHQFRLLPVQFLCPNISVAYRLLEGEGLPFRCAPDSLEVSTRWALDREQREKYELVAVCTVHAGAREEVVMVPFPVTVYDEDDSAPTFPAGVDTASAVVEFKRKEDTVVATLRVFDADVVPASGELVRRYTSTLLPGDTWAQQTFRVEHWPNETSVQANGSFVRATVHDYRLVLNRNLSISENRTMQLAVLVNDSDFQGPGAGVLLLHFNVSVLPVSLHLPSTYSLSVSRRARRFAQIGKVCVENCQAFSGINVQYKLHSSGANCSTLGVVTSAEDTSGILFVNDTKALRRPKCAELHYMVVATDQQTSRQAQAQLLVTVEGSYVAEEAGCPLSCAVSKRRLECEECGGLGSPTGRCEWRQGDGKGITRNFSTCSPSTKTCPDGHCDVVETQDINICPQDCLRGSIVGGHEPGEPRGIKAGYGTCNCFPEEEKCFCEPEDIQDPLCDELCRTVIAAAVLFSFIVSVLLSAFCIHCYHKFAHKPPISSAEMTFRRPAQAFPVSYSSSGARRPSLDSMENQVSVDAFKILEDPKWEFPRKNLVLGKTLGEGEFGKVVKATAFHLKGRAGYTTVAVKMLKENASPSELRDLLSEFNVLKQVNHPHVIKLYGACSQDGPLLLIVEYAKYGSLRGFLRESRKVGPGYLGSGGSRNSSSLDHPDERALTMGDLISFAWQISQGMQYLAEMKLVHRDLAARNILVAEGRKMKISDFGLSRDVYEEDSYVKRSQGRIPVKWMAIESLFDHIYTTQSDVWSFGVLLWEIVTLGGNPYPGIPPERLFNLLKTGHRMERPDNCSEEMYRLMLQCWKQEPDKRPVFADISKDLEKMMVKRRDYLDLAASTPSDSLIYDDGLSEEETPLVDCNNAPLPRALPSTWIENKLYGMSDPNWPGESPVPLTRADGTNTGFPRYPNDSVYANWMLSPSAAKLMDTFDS

- Ki (Adenosine receptor A1): 11 µM
SMILES: CC(=O)Nc1nc2ccccc2s1

- IC50 [4]: 0.096 µM
SMILES: O=C(Nc1ccc(C(=O)N2CC(c3nc4ccccc4s3)C2)s1)[C@@H]1C[C@@H](OCCCCCO[C@H]2CN[C@H](C(=O)Nc3ccc(C(=O)N4CC(c5nc6ccccc6s5)C4)s3)C2)CN1

- IC50 [5]: 0.79 µM
SMILES: CN1CC(C(=O)NCc2ccc3c(-c4cccc(C(N)=S)c4)cn(C4CCC(S(=O)(=O)C(F)(F)F)CC4)c3c2)C1 (stereo unspecified)

Further lines, the compound ahead of its results:

SMILES: Nc1ncnc2[nH]ncc12
- IC50 [1]: 9.2 µM

SMILES: NC(=S)c1cccc(-n2cccc2)c1
- Kd [2]: > 1000 µM

SMILES: CCOC(=O)N1CCC(N2CCC(C(N)=O)CC2)CC1
- EC50 [3]: 3.2 µM
